Measured values as given in patent US6809083B1, “Use of N-substituted-1, 5-dideoxy-1, 5-imino-D-glucitol compounds for treating hepatitis virus infections” (priority 1998, dated 2004).

How the values were obtained:
[1] = tested on: Hepatitis B Virus; assay: Hepatitis B virus secretion from chronically HBV secreting HepG2.2.15 cells (preS1 immunoprecipitation of virions, PCR of viral DNA); format: cell-based; conditions: 3 days incubation
Protocol: (§1) The anti-hepatitis B virus activity and effect on cell viability of a number of different N-substituted-1,5-dideoxy-1,5-imino-D-glucitol compounds were assessed using an in vitro assay employing chronically hepatitis B virus secreting HepG2.2.15 cells. The method employed was essentially that described in Block et al. (1994) Proc. Natl. Acad. Sci. USA 91:2235-2239.

[2] = tested on: Hepatitis B Virus; assay: IC-90 of N-nonyl-DNJ (T. Block and G. Jacob, unpublished observation); format: cell-based
Protocol: The anti-hepatitis B virus effect of (−)-2′-deoxy-3′-thiocytidine-5′-triphosphate (3TC) alone and in combination with N-nonyl-DNJ was determined according to Korba ((1996) Antiviral Research 29(1):49-51), using the “combostat” strategy (Comstat Program, Combostat Corp., Duluth, Minn.). The combostat method involves serially diluting the IC-90 of each compound. The IC-90 of N-nonyl-DNJ has been determined to be between 4 and 10 μg/ml (T. Block and G. Jacob, unpublished observation). The accepted IC-90 for 3TC in HepG 2.2.15 (2.2.15) cells is 300 nM to 500 nM (Doong et al. (1991) Proc. Natl. Acad. Sci. USA 88:8495-8499).

[3] = tested on: woodchuck hepatitis virus (WHV); assay: Woodchuck model, N-nonyl-DNJ monotherapy, BID oral dosing for 4 weeks; total HBV DNA and IPDNA by quantitative PCR; format: in vivo
Source text: In order to evaluate the efficacy of N-nonyl-DNJ in combination with 3TC (or other nucleoside or nucleotide analogs) against Hepatitis B virus in a woodchuck animal model, an monotherapy experiment using N-nonyl-DNJ alone was first conducted. This was necessary to determine if N-nonyl-DNJ has any anti-HBV effect in the woodchuck and, if N-nonyl-DNJ has a beneficial effect, to design a combination study based on the dose-response relationship of this drug alone.
Therefore, five groups of four animals each (all groups had both sexes, all but the control had two of each sex) were assigned to 0, 12.5, 25, 50, and 100 mg/kg/day with BID oral dosing. These were lab-reared wild animals. All animals were infected with woodchuck hepatitis virus (WHV) as neonates, and had been tested positive on serological tests for WHV surface antigen. Blood samples were drawn one week prior to dosing (−1 week), immediately before dosing (0 weeks), weekly during dosing (1, 2, 3, and 4 weeks), and after the end of dosing (5, 6, 8, and 10 weeks).
There are two measures of drug efficacy: reduction in total HBV DNA (measured by quantitative PCR), and reduction in HBV DNA from capsids with intact surface glycoproteins, which is the active form of the virus (measured by an ELISA-like immune precipitation assay followed by quantitative PCR).
Before models are fitted to the data, a log transform was applied because: 1) the variation in IPDNA increases with increasing IPDNA values; the log transformation gives values with a nearly constant variation, and 2) it is expected that drug effects will appear as a constant multiplier of the IPDNA level. Because there are zero values of IPDNA, a small value (about 1/2 of the smallest non-zero value) was added to all values before the log transform.
Two approaches were used to model the changes in slope to week with dose of N-nonyl-DNJ: a linear modeling approach and a nonlinear model. Both approaches assume that the (linear) rate of change of the Log(IPDNA) measure over the dosing period is the “right” measure to reflect the effect of the drug on the virus. Both approaches are fit in stages, and the first stage is common to both approaches. First, a simple straight line regression model is fit using weeks 0-4 to predict log(IPDNA+10) separately for each animal by run combination. In the second stage, the response variable is the slope fitted in the first stage.
For the linear approach, a model is fit with slope to week as the response where run is considered a block, dose has a significant effect (almost all of this effect is due to a slope to dose), and the relevant error for testing the effect of dose is the variation among animals treated alike (after the adjustment for the runs as blocks). This is similar to using the calibration data within each run to first adjust each run's data to a common virus DNA concentration; the difference is that here the data from the woodchucks are used for the run adjustment rather than only the calibration data.
For the nonlinear approach, a four parameter logistic model is fit with the slope to week as the response and the dose as the predictor. Again, run is considered a block, but because no run has all weeks, it is not possible to fully reflect the blocking in the nonlinear approach. […] The average maximum slope observed was 2.71 additional Log(IPDNA μg/mL)/week, or an increase of about 150%/week, the average minimum slope observed with N-nonyl-DNJ is 0.31 fewer Log(IPDNA μg/mL)/week), or about a decrease of about 25%/week. The slopes, the fitted model, the parameter estimates from the model, and the approximate standard errors for these parameters are all shown in FIG. 3. […] Whether in woodchucks or humans, the effective dose of both the N-alkyl-DNJ and nucleoside or nucleotide antiviral agent administered in combination therewith can be administered in two equal daily subdoses (i.e., B.I.D.).

[4] = tested on: HepG2.2.15 cells; assay: Viability of HepG2.2.15 cells, trypan blue exclusion; format: cell-based; conditions: [200] and [1000]; trypan blue staining not performed
Protocol: as §1

[5] = concentration [200] (unit not given)
[6] = concentration [1000] (unit not given)

| SMILES | Relative amount of HBV secreted, as a % of control [1, 5] | Relative amount of HBV secreted, as a % of control [1, 6] | IC90 [2] [µg/mL] | effect on total HBV DNA measurements ([3]; woodchuck, all dose levels, pre-dose and dosed portions of the study) | average minimum slope observed ([3]; woodchuck, weeks 0-4) | decrease of IPDNA corresponding to average minimum slope ([3]; woodchuck, weeks 0-4) | increase of IPDNA corresponding to average maximum slope ([3]; woodchuck, weeks 0-4) | average maximum slope observed ([3]; woodchuck, weeks 0-4, upper end of dose-response model) | approximate effective monotherapy dose ([3]; woodchucks, oral) | Appearance of cells by gross microscopic examination [4] |
| --- | --- | --- | --- | --- | --- | --- | --- | --- | --- | --- |
| CCCCN1C[C@H](O)[C@@H](O)[C@H](O)[C@H]1CO [NBDNJ, N-(n-butyl-)-1,5-dideoxy-1,5-imino-D-glucitol, reference compound] | 37.0 +/− 13 (n = 15) % of control | 3.2 +/− 5 (n = 15) % of control |  |  |  |  |  |  |  |  |
| CCCCCCCCCN1C[C@H](O)[C@@H](O)[C@H](O)[C@H]1CO [Compound 1, N-(n-nonyl)-1,5-dideoxy-1,5-imino-D-glucitol] |  |  | 4 to 10 | no effect | 0.31 fewer Log(IPDNA μg/mL)/week | about 25 %/week | about 150 %/week | 2.71 additional Log(IPDNA μg/mL)/week | about 16 mg/kg/day |  |
| CCC(CC)CN1C[C@H](O)[C@@H](O)[C@H](O)[C@H]1CO [Compound 3, N-(2-ethylbutyl)-1,5-dideoxy-1,5-imino-D-glucitol] | 45.0 +/− 30 (n = 3) % of control | 5.0 +/− 20 (n = 3) % of control |  |  |  |  |  |  |  | ^5Although trypan blue viability staining was not performed, cells appeared unremarkable (healthy) by gross microscopic examination. |
